In a compilation of properties of binary mixtures (doi:10.1016/j.jct.2011.12.003):

Experiment: xn = mol fraction of the nth substance listed
Conditions: 101 kPa

CCCCCCO + CCCCCCCC[n+]1ccc2ccccc2c1.O=S(=O)([N-]S(=O)(=O)C(F)(F)F)C(F)(F)F
x1 = 1
Conditions | viscosity [mPa·s]
298.15 K | 4.48
308.15 K | 3.34
318.15 K | 2.54
338.15 K | 1.56

CCCCO + CCCCCCCC[n+]1ccc2ccccc2c1.O=S(=O)([N-]S(=O)(=O)C(F)(F)F)C(F)(F)F
x1 = 1
Conditions | viscosity [mPa·s]
298.15 K | 2.54
308.15 K | 1.98
318.15 K | 1.57
328.15 K | 1.26
338.15 K | 1.03

OCCc1ccccc1 + CCCCCCCC[n+]1ccc2ccccc2c1.O=S(=O)([N-]S(=O)(=O)C(F)(F)F)C(F)(F)F
x1 = 1
Conditions | viscosity [mPa·s]
298.15 K | 10.9
308.15 K | 7.19
318.15 K | 4.98
328.15 K | 3.64
338.15 K | 2.77

CCCCCCCC[n+]1ccc2ccccc2c1.O=S(=O)([N-]S(=O)(=O)C(F)(F)F)C(F)(F)F + CCCCCCO
viscosity [mPa·s]
Conditions | x2 = 0 | x2 = 0.0854 | x2 = 0.2857 | x2 = 0.3673 | x2 = 0.4981 | x2 = 0.5825 | x2 = 0.6854 | x2 = 0.7913
298.15 K | 369 | 287.4 | 136.9 | 95.1 | 58.56 | 42.65 | 28.18 | 17.78
308.15 K | 191 | 153.3 | 78.6 | 56.09 | 35.72 | 26.62 | 18.08 | 11.64
318.15 K | 108.7 | 89.2 | – | 35.66 | 23.49 | 17.79 | 12.37 | 8.11
328.15 K | 67.9 | 56.19 | 32.57 | 24.14 | 16.33 | 12.59 | 8.87 | 5.88
338.15 K | 44.8 | 37.54 | 22.77 | 17.2 | 11.88 | 9.24 | – | 4.44

CCCCCCCC[n+]1ccc2ccccc2c1.O=S(=O)([N-]S(=O)(=O)C(F)(F)F)C(F)(F)F + CCCCO
viscosity [mPa·s]
Conditions | x2 = 0 | x2 = 0.0865 | x2 = 0.1708 | x2 = 0.3134 | x2 = 0.4036 | x2 = 0.5032 | x2 = 0.6067 | x2 = 0.6915 | x2 = 0.7937 | x2 = 0.9314
298.15 K | 369 | 276 | 205 | – | 84.3 | – | 33.87 | 22.84 | 12.59 | 6.1
308.15 K | 191 | 151.2 | 115.2 | – | 51.64 | 34.34 | 21.89 | – | 8.77 | 4.39
318.15 K | 108.7 | 89.2 | 69.5 | 44.66 | 32.98 | 22.81 | 15.04 | 10.61 | – | 3.32
328.15 K | 67.9 | 56.1 | – | 29.85 | 22.59 | 16.01 | 10.88 | 7.77 | 4.72 | 2.58
338.15 K | 44.88 | 37.87 | 31.27 | – | 16.68 | 11.78 | 8.15 | – | – | 2.06

CCCCCCCC[n+]1ccc2ccccc2c1.O=S(=O)([N-]S(=O)(=O)C(F)(F)F)C(F)(F)F + OCCc1ccccc1
viscosity [mPa·s]
Conditions | x2 = 0 | x2 = 0.0851 | x2 = 0.1985 | x2 = 0.3101 | x2 = 0.3748 | x2 = 0.4969 | x2 = 0.5766 | x2 = 0.695 | x2 = 0.8076 | x2 = 0.8956
298.15 K | 369 | 305 | 219 | 153.5 | 126.8 | 79.7 | – | 40.23 | 26.6 | –
308.15 K | 191 | 161.9 | 119.7 | 86.7 | 72.7 | 47.31 | 36.67 | – | 16.96 | 12.09
318.15 K | 108.7 | 93.8 | – | 53.23 | – | 30.33 | – | 16.64 | 11.53 | 8.35
328.15 K | 67.9 | – | 45.88 | 35.03 | – | 20.59 | – | – | 8.23 | 5.99
338.15 K | 44.8 | – | 31.17 | 24.37 | – | 14.79 | 12.01 | – | 6.09 | 4.45
